Results: US20200360391A1, “Medicinal Composition for Treating Intractable Heart Disease” (Osaka University, priority 2016, published 2020)
“Also recorded” adds a separate entry of the source. Where a name gives a salt, the structure may show the parent alone.

Legend:
[1] = system: spontaneous dilated cardiomyopathy (J2N-k) hamster model; assay: Spontaneous dilated cardiomyopathy (J2N-k) hamster model, 8-week administration from 20 weeks of age (Tests 1-3): echocardiography, body weight; conditions: for LVIDs 8 W: hydrochloride hydrate
Summary of the method: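 Male J2N-k δ-glycan-deficient hamsters (delivered at 18 weeks; 2-week acclimation) were dosed by oral gavage twice daily for 8 weeks in 0.5% CMC-Na (G in distilled water; 5 mL/kg) at human-equivalent doses, e.g. cilostazol 1.7 mg/kg. Camostat PLGA preparation was given 10 mg/kg s.c. every 4 weeks. Echocardiographic EF/FS changes from baseline were assessed at 4 and 8 weeks versus vehicle.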

[2] = system: rat coronary artery complete ischemia model; assay: Model of ischemia (MI) by rat coronary artery complete ligation (Tests 1 and 2): echocardiography, body weight; conditions: for value of change in E.F. compared with E.F. on Day 1 / value of change in F.S. compared with F.S. on Day 1: B-MS 100, C-MS 50, F-MS 30 mg/kg s.c. single injection
[3] = system: spontaneous dilated cardiomyopathy J2N-k baby hamsters; assay: J2N-k baby hamsters (Test 4): administration alone or in combination, echocardiography, body weight; assay type: in vivo, hamster; conditions: for % FS / EF (%) / value of change in E.F. compared with E.F. at 0 W / value of change in F.S. compared with F.S. at 0 W: Test 4, dose O 0.17, C 3.3, E 15, orally twice daily, mean ± S.D.
Protocol: δ-Glycan-deficient spontaneous dilated cardiomyopathy (J2N-k) male hamsters (Japan SLC, Inc.) were delivered at 4 weeks of age. After a 1-week quarantine/acclimation, echocardiography was performed. The hamsters were grouped by stratified random assignment based on the EF values and the body weights so that each administration group was equalized.
Each test substance was individually administered twice daily (at an interval of 8 hours or more) by oral gavage, and echocardiography was performed 4 and 8 weeks after the start of administration (before dissection). Differences from the value before the start of administration (at the time of grouping) (amount of change: A) in each group were examined, and the cardiac function (EF value, FS %, etc.) was compared with that in the vehicle group (Group 1).
The doses were set according to the dose-setting basis in Test 3, and similarly orally administered twice daily. Effects of administration of combinations of two or three of carvedilol, which is a β-blocker widely used clinically, and ozagrel and/or pirfenidone were examined.

[4] = cited from earlier work
rats [5] = conditions: subcutaneous administration in rats; cited from earlier work
rats [6] = conditions: cited from earlier work
[7] = MI Test 1, NOAEL doses, 7 Day, mean ± S.D.
[8] = MI Test 1, NOAEL doses, 14 Day, mean ± S.D.
[9] = MI Test 1, NOAEL doses, 29 Day, mean ± S.D.
[10] = MI Test 2, 14 Day, B 150, G 5, I 30, C 10 mg/kg p.o. b.i.d., mean ± S.D.
[11] = MI Test 2, 29 Day, B 150, G 5, I 30, C 10 mg/kg p.o. b.i.d., mean ± S.D.

Compound: O=C(O)/C=C/c1ccc(Cn2ccnc2)cc1 [Compound C, Ozagrel hydrochloride hydrate]
- LVIDd 4 W ([1]; Test 1, p.o. b.i.d.): 7.1 mm
- LVIDd 8 W ([1]; Test 1, p.o. b.i.d.): 7.4 mm
- LVIDs 4 W ([1]; Test 1, p.o. b.i.d.): 5.9 mm
- LVIDs 8 W ([1]; Test 1, p.o. b.i.d.): 6.1 mm
- LVIDs 8 W ([1]; Test 1, p.o. b.i.d., listed as ozagrel): significantly lower
- Cardiac function (EF, FS %) actual measured value or change rate compared with control, 4 W value ([1]; Test 3, clinical dose): significant cardiac function improvement effect
- Cardiac function improvement effect ([1]; Test 3, clinical dose, summary): cardiac function improvement effect was observed
- Minimal effective dose (screening 2) ([1]; mg/kg twice per day, oral preparation): 3.3 mg/kg
- Action on left ventricular systolic function ([2]; MI Test 1, 28-day repeated oral administration b.i.d., NOAEL-based doses): suppression action on the deterioration of left ventricular systolic function
- Body weight ([2]; MI Test 1, NOAEL doses, 1 Day (grouping), mean ± S.D.): 234.8 ± 8.3 g
- % FS: value of change compared with the value on Day 1 [2, 7]: 0%
- Body weight [2, 7]: 240.0 ± 9.3 g
- EF: value of change compared with the value on Day 1 [2, 7]: -1%
- % FS: value of change compared with the value on Day 1 [2, 8]: -1%
- Body weight [2, 8]: 261.2 ± 10.8 g
- EF: value of change compared with the value on Day 1 [2, 8]: -2%
- Body weight ([2]; MI Test 1, NOAEL doses, 21 Day, mean ± S.D.): 278.9 ± 12.5 g
- % FS: value of change compared with the value on Day 1 [2, 9]: -3%
- Body weight [2, 9]: 299.8 ± 13.9 g
- EF: value of change compared with the value on Day 1 [2, 9]: -5%
- EF actual measured value and/or amount of change compared with control ([2]; MI Test 2, Day 14 and Day 29): significantly higher
- Values of cardiac function (EF, FS %) compared with control ([2]; MI Test 2, oral b.i.d. 4 weeks or single subcutaneous administration): significantly higher
- Body weight ([2]; MI Test 2, 1 Day, B 150, G 5, I 30, C 10 mg/kg p.o. b.i.d., B MS 100, C MS 50, I MS 30 mg/kg s.c. single injection, mean): 240.1 g
- Body weight ([2]; MI Test 2, 7 Day, B 150, G 5, I 30, C 10 mg/kg p.o. b.i.d., B MS 100, C MS 50, I MS 30 mg/kg s.c. single injection, mean): 245.7 g
- Body weight ([2]; MI Test 2, 14 Day, B 150, G 5, I 30, C 10 mg/kg p.o. b.i.d., B MS 100, C MS 50, I MS 30 mg/kg s.c. single injection, mean): 273.3 g
- value of change in E.F. compared with E.F. on Day 1 [2, 10]: <−4.9 ± 2.3> %
- value of change in F.S. compared with F.S. on Day 1 [2, 10]: <−2.7 ± 1.3> %
- Body weight ([2]; MI Test 2, 21 Day, B 150, G 5, I 30, C 10 mg/kg p.o. b.i.d., B MS 100, C MS 50, I MS 30 mg/kg s.c. single injection, mean): 292.8 g
- Body weight ([2]; MI Test 2, 29 Day, B 150, G 5, I 30, C 10 mg/kg p.o. b.i.d., B MS 100, C MS 50, I MS 30 mg/kg s.c. single injection, mean): 310.4 g
- value of change in E.F. compared with E.F. on Day 1 [2, 11]: <−10.0 ± 3.9> %
- value of change in F.S. compared with F.S. on Day 1 [2, 11]: <−5.3 ± 2.1> %
- Action on decrease in left ventricular systolic function ([3]; Test 4, clinical doses p.o. b.i.d., 8 weeks, hydrochloride hydrate): significant suppression action on a decrease in left ventricular systolic function; also recorded: action of significantly suppressing a decrease in left ventricular systolic function
- Body weight 3 W ([3]; Test 4, p.o. b.i.d., clinical dose): 85.4 g
- % FS ([3]; 0 W (start of administration)): 39.1 ± 2.7%
- EF (%) ([3]; 0 W (start of administration)): 77.3 ± 2.9%
- % FS ([3]; 4 W): 34.9 ± 1.5%
- EF (%) ([3]; 4 W): 72.3 ± 2.0%
- value of change in E.F. compared with E.F. at 0 W ([3]; 4 W): <−5.0 ± 1.4> %
- value of change in F.S. compared with F.S. at 0 W ([3]; 4 W): <−4.2 ± 1.4> %
- % FS ([3]; 8 W): 30.7 ± 2.0%
- EF (%) ([3]; 8 W): 66.6 ± 2.8%
- value of change in E.F. compared with E.F. at 0 W ([3]; 8 W): <−10.7 ± 2.0> %
- value of change in F.S. compared with F.S. at 0 W ([3]; 8 W): <−8.4 ± 1.6> %
- Safety at the daily amount ([4]; camostat 600 mg daily, ozagrel 400 mg daily): no safety problems except for slightly prolonged bleeding time
- Abdominal / stomach / gastric discomfort cases ([4]; human, in vivo): 0.1%
- Bleeding tendency cases ([4]; human, in vivo): 0.1%
- Elevated AST (GOT) and/or ALT (GPT) / liver enzyme cases ([4]; human, in vivo): 0.3%
- Itching / pruritus cases ([4]; human, in vivo): 0.2%
- Nausea cases (cilostazol: nausea/vomiting) ([4]; human, in vivo): 0.3%
- Rash cases ([4]; human, in vivo): 0.2%
- Cases with side effects (including laboratory test value abnormality) ([4]; share of cases evaluated for safety): 2.0%
- LD50 (rats [5]): 2049 mg/kg
- No-observed-effect level (rats [6]; rats, 3 months): 150 mg/kg
- Dose at which toxic findings were observed (rats [6]; repeated oral administration in rats, duration per compound): ≥ 500 mg/kg
